Results: ChEMBL document CHEMBL1201862, “PubChem BioAssay data set” (2004)
Several values for one entry are separate records, joined by “and”; a condition that tells them apart may be missing. Identical values can stand only once.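 Assay format: 96-well plates, 48-hour exposure. Abbreviation: GI50, concentration required for 50% inhibition of growth.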 Activity calls are given as the source filed them. No stated cut-off is given here; in the data, active = GI50 up to about 1.1 µM and inactive = higher.

Legend:
Test in all cases: growth of human tumour cells (NCI), 48 h
[1] = tested on: UO-31
[2] = tested on: KM12
[3] = tested on: SNB-19
[4] = tested on: UACC-62
[5] = tested on: RPMI-8226
[6] = tested on: NCI-H460
[7] = tested on: A498
[8] = tested on: MCF7
[9] = tested on: K562
[10] = tested on: MDA-N
[11] = tested on: SK-MEL-28
[12] = tested on: UACC-257
[13] = tested on: RXF 393
[14] = tested on: HT-29
[15] = tested on: HCC 2998
[16] = tested on: OVCAR-3
[17] = tested on: COLO 205
[18] = tested on: HCT-15
[19] = tested on: TK-10
[20] = tested on: MDA-MB-435
[21] = tested on: M14
[22] = tested on: 786-0
[23] = tested on: SNB-75
[24] = tested on: EKVX
[25] = tested on: OVCAR-5
[26] = tested on: HOP-62
[27] = tested on: SF-295
[28] = tested on: SK-MEL-5
[29] = tested on: SF-268
[30] = tested on: IGROV-1
[31] = tested on: A549
[32] = tested on: Hs-578T
[33] = tested on: NCI-H226
[34] = tested on: DU-145
[35] = tested on: OVCAR-4
[36] = tested on: SR
[37] = tested on: SK-OV-3
[38] = tested on: MDA-MB-231
[39] = tested on: CAKI-1
[40] = tested on: SW-620
[41] = tested on: Malme-3M
[42] = tested on: PC-3
[43] = tested on: HL-60
[44] = tested on: MOLT-4
[45] = tested on: LOX IMVI
[46] = tested on: CCRF-CEM
[47] = tested on: SN12C
[48] = tested on: T47D
[49] = tested on: OVCAR-8
[50] = tested on: NCI-H23
[51] = tested on: HOP-92
[52] = tested on: HCT-116
[53] = tested on: SK-MEL-2
[54] = tested on: NCI-H522
[55] = tested on: U-251
[56] = tested on: NCI/ADR-RES

## Cc1ccc(-c2cc(-c3ccco3)c(C#N)c(=S)n2C2OC(CO)C(O)C(O)C2O)cc1 (stereo unspecified)
[1]
  GI50: 18.5 µM (inactive) and 31.7 µM (inactive)
[2]
  GI50: 17.2 µM (inactive) and 30.1 µM (inactive)
[3]
  GI50: 36.1 µM (inactive) and 68.9 µM (inactive)
[4]
  GI50: 2.23 µM (inactive) and 2.48 µM (inactive)
[5]
  GI50: 4.46 µM (inactive) and 6.04 µM (inactive)
[6]
  GI50: 28 µM (inactive) and 36.6 µM (inactive)
[7]
  GI50: 41 µM (inactive) and 28.2 µM (inactive)
[8]
  GI50: 27.9 µM (inactive) and 49 µM (inactive)
[9]
  GI50: 39 µM (inactive)
[10]
  GI50: 30.4 µM (inactive) and 34.4 µM (inactive)
[11]
  GI50: 52.2 µM (inactive) and 41 µM (inactive)
[12]
  GI50: 53.8 µM (inactive) and 45.3 µM (inactive)
[13]
  GI50: 18.6 µM (inactive) and 18.9 µM (inactive)
[14]
  GI50: 34.9 µM (inactive) and 34 µM (inactive)
[15]
  GI50: > 100 µM (inactive)
[16]
  GI50: 21.4 µM (inactive) and 35.6 µM (inactive)
[17]
  GI50: 27.2 µM (inactive) and 35.1 µM (inactive)
[18]
  GI50: 94.6 µM and 49.2 µM
[19]
  GI50: 67.8 µM (inactive) and 54.5 µM (inactive)
[20]
  GI50: 43.2 µM (inactive) and 38.9 µM (inactive)
[21]
  GI50: 17.7 µM (inactive) and 30.3 µM (inactive)
[22]
  GI50: 36.6 µM (inactive) and 56.8 µM (inactive)
[23]
  GI50: 66.4 µM (inactive) and 60.5 µM (inactive)
[24]
  GI50: > 100 µM (inactive) and 95.9 µM (inactive)
[25]
  GI50: 45.7 µM (inactive) and 39.5 µM (inactive)

## Cc1nc2ccc(Br)cc2c(=O)n1-c1ccc(NC2OCC(O)C(O)C2O)cc1 (stereo unspecified)
[3]
  GI50: > 100 µM (inactive)
[26]
  GI50: > 100 µM (inactive)
[27]
  GI50: > 100 µM (inactive)
[7]
  GI50: > 100 µM (inactive)
[28]
  GI50: 58.3 µM (inactive)
[29]
  GI50: > 100 µM (inactive) and 55.6 µM (inactive)
[30]
  GI50: 62.4 µM (inactive)
[31]
  GI50: > 100 µM (inactive)
[32]
  GI50: 58.9 µM (inactive)
[19]
  GI50: > 100 µM (inactive) and 59.3 µM (inactive)
[33]
  GI50: > 100 µM (inactive)
[34]
  GI50: > 100 µM (inactive)
[35]
  GI50: > 100 µM (inactive) and 87.5 µM (inactive)
[24]
  GI50: > 100 µM (inactive)
[25]
  GI50: > 100 µM (inactive)

## CCOC(=O)c1sc2nc(-c3ccccc3)nn2c1CBr
[2]
  GI50: 2.11 µM (inactive)
[36]
  GI50: 0.311 µM (active)
[5]
  GI50: 1.74 µM (inactive)
[37]
  GI50: 3.12 µM (inactive)
[38]
  GI50: 1.9 µM (inactive)
[26]
  GI50: > 10 µM (inactive)
[27]
  GI50: 9.29 µM (inactive)
[39]
  GI50: 1.5 µM (inactive)
[8]
  GI50: 1.91 µM (inactive)
[9]
  GI50: 0.589 µM (active)
[28]
  GI50: 1.77 µM (inactive)
[29]
  GI50: 2.04 µM (inactive)
[30]
  GI50: 3.17 µM (inactive)
[40]
  GI50: 1.73 µM (inactive)
[31]
  GI50: 5.11 µM (inactive)
[41]
  GI50: 2.07 µM (inactive)
[42]
  GI50: 2.06 µM (inactive)
[11]
  GI50: 1.95 µM (inactive)
[12]
  GI50: 2.16 µM (inactive)
[13]
  GI50: 2.59 µM (inactive)
[43]
  GI50: 0.348 µM (active)
[14]
  GI50: 1.89 µM (inactive)
[44]
  GI50: 0.296 µM (active)
[15]
  GI50: 5.33 µM (inactive)
[17]
  GI50: 1.9 µM (inactive)
[45]
  GI50: 1.56 µM (inactive)
[19]
  GI50: 2.34 µM (inactive)
[21]
  GI50: 1.51 µM (inactive)
[46]
  GI50: 0.244 µM (active)
[47]
  GI50: 1.74 µM (inactive)
[22]
  GI50: 1.6 µM (inactive)
[34]
  GI50: > 10 µM (inactive)
[48]
  GI50: 2.42 µM (inactive)
[23]
  GI50: 2.24 µM (inactive)
[49]
  GI50: 2.07 µM (inactive)
[50]
  GI50: 1.94 µM (inactive)
[24]
  GI50: > 10 µM (inactive)

## CC1OC(O[C@H]2/C=C/C=C/C=C/C=C/C=C/C=C/C=C/[C@H](C)[C@@H](O)[C@@H](C)[C@H](C)OC(=O)C[C@H](O)C[C@H](O)CC[C@@H](O)[C@H](O)C[C@H](O)C[C@]3(O)C[C@H](O)[C@@H](C(=O)O)[C@H](C2)O3)C(O)C(N)C1O (stereo partly specified)
[1]
  GI50: 1.79 µM (inactive)
[2]
  GI50: 20.5 µM (inactive)
[36]
  GI50: 2.35 µM (inactive)
[37]
  GI50: 37.3 µM (inactive)
[51]
  GI50: 32.2 µM (inactive)
[8]
  GI50: 20.5 µM (inactive)
[52]
  GI50: 24.3 µM (inactive)
[9]
  GI50: 60.4 µM (inactive)
[30]
  GI50: 10 µM (inactive)
[40]
  GI50: 11.6 µM (inactive)
[10]
  GI50: 7.69 µM (inactive)
[42]
  GI50: 16.3 µM (inactive)
[13]
  GI50: 5.64 µM (inactive)
[14]
  GI50: 21.8 µM (inactive)
[32]
  GI50: 9.25 µM (inactive)
[15]
  GI50: 28.5 µM (inactive)
[16]
  GI50: 15.9 µM (inactive)
[17]
  GI50: 24.3 µM (inactive)
[53]
  GI50: 36.7 µM (inactive)
[33]
  GI50: > 100 µM (inactive)
[46]
  GI50: 6.15 µM (inactive)
[22]
  GI50: 4.4 µM (inactive)
[54]
  GI50: 8.87 µM (inactive)
[35]
  GI50: 18.2 µM (inactive)

## CC(=O)OCC1OC(n2c(-c3ccccc3)c(C)c(C)c(C#N)c2=S)C(OC(C)=O)C(OC(C)=O)C1OC(C)=O (stereo unspecified)
[2]
  GI50: > 50 µM (inactive)
[38]
  GI50: 12.9 µM (inactive) and 12.8 µM (inactive)
[6]
  GI50: > 50 µM (inactive) and 43.4 µM (inactive)
[27]
  GI50: 21 µM (inactive) and 23.1 µM (inactive)
[7]
  GI50: > 50 µM (inactive) and 43.8 µM (inactive)
[39]
  GI50: > 50 µM (inactive)
[8]
  GI50: > 50 µM (inactive)
[28]
  GI50: > 100 µM (inactive)
[30]
  GI50: > 100 µM (inactive)
[10]
  GI50: 28.8 µM (inactive) and 18.1 µM (inactive)
[41]
  GI50: > 50 µM (inactive) and 38.1 µM (inactive)
[42]
  GI50: 26.4 µM (inactive)
[11]
  GI50: 72.4 µM (inactive)
[12]
  GI50: 54.5 µM (inactive)
[55]
  GI50: 20.3 µM (inactive)
[43]
  GI50: > 100 µM (inactive)
[14]
  GI50: > 50 µM (inactive)
[44]
  GI50: > 50 µM (inactive)
[15]
  GI50: > 50 µM (inactive) and 86.3 µM (inactive)
[16]
  GI50: 37.4 µM (inactive) and 27.2 µM (inactive)
[17]
  GI50: > 100 µM (inactive)
[18]
  GI50: 64.4 µM
[20]
  GI50: 57.5 µM (inactive)
[56]
  GI50: 34.2 µM (inactive) and 47.4 µM (inactive)
[33]
  GI50: > 50 µM (inactive)
[48]
  GI50: > 50 µM (inactive) and 34 µM (inactive)
[23]
  GI50: > 100 µM (inactive)
[54]
  GI50: > 50 µM (inactive) and 65.8 µM (inactive)
[24]
  GI50: 13.5 µM (inactive) and 14.8 µM (inactive)
[25]
  GI50: 37.3 µM (inactive)
